Measurements from patent US8629168B2, “Benzoxazoles and oxazolopyridines being useful as janus kinases inhibitors” (priority 2006, dated 2014).

Target: T1, GST-JAK2(808-1132) (Homo sapiens, UniProt O60674)
T1 construct: GST-JAK2(808-1132) is purchased from Invitrogen; purchased Invitrogen (Carlsbad, USA) #4288
Experiment: EPK JAK/TYK-kinase family profiling assay (Caliper mobility shift), JAK2
Format: biochemical
Details: Caliper mobility shift assay of Example 187, 20 μM ATP, read-out: IC50 with Test in present Example
Excerpt: All four kinases of the JAK/TYK-kinase family are used as purified recombinant GST-fusion proteins, containing the active kinase domains. GST-JAK1(866-1154), GST-JAK3(811-1124), and GST-TYK2(888-1187) are expressed and purified by affinity chromatography. GST-JAK2(808-1132) is purchased from Invitrogen (Carlsbad, USA, #4288).
The kinase assays are based on the Caliper mobility shift assay using the LabChip 3000 systems. This technology is similar to capillary electrophoresis and uses charge driven separation of substrate and product in a microfluidic chip.
All kinase reactions are performed in 384 well microtiter plates in a total reaction volume of 18 μl. The assay plates are prepared with 0.1 μl per well of test compound in the appropriate test concentration, as described under the section “preparation of compound dilutions”. The reactions are started by combining 9 μl of substrate mix (consisting of peptide and ATP) with 9 μl of kinase dilution. The reactions are incubated for 60 minutes at 30° C. and stopped by adding 70 μl of stop buffer (100 mM Hepes, 5% DMSO, 0.1% Coating reagent, 10 mM EDTA, 0.015% Brij 35).
Fluorescently labeled synthetic peptides are used as substrates in all reactions. […] Specific assay conditions are described in Table 1:
The terminated reactions are transferred to a Caliper LabChip 3000 reader (Caliper Life Sciences, Mountain View, Calif., USA) and the turnover of each reaction is measured by determining the substrate/product ratio.
Test compounds are dissolved in DMSO (10 mM) and transferred into 1.4 mL flat bottom or V-shaped Matrix tubes carrying a unique 2D matrix chip by individual compound hubs. The numbers of these chips are distinctively linked to the individual compound identification numbers. The stock solutions are stored at −20° C. if not used immediately. For the test procedure the vials are defrosted and identified by a scanner whereby a working sheet is generated that guides the subsequent working steps.
Compound dilutions are made in 96 well plates. This format enabled the assay of maximally 40 individual test compounds at 8 concentrations (single points) including 4 reference compounds. The dilution protocol includes the production of pre-dilution plates, master plates and assay plates:
Pre-dilution plates: 96 polypropylene well plates are used as pre-dilution plates. A total of 4 pre-dilution plates are prepared including 10 test compounds each on the plate positions A1-A10, one standard compound at A11 and one DMSO control at A12. All dilution steps are done on a Hamilton STAR robot (Hamilton, Co., Reno, Nev., USA).
Master plates: 100 μL of individual compound dilutions including standard compound and controls of the 4 “pre-dilution plates” are transferred into a 384 “master plate” including the following concentrations 1,820, […], 182, 54.6, 18.2, 5.46, 1.82 and 0.546 μM, respectively in 90% of DMSO.
Assay plates: Identical assay plates are then prepared by pipetting 100 nL each of compound dilutions of the master plates into 384-well “assay plates”. In the following the compounds are mixed with 9 μL of assays components plus 9 μL enzyme corresponding to a 1:181 dilution steps enabling the final concentration of 10, 3.0, 1.0, 0.3, 0.1, 0.03, 0.01 and 0.003 μM, respectively. The preparation of the master plates are handled by the Matrix PlateMate Plus robot (Thermo Fisher Scientific, Handforth, Cheshire, United Kingdom) and replication of assay plates by the HummingBird robot (Genomic Solutions, Inc., Ann Arbor, Mich., USA).

T1 sequence (O60674 808-1132): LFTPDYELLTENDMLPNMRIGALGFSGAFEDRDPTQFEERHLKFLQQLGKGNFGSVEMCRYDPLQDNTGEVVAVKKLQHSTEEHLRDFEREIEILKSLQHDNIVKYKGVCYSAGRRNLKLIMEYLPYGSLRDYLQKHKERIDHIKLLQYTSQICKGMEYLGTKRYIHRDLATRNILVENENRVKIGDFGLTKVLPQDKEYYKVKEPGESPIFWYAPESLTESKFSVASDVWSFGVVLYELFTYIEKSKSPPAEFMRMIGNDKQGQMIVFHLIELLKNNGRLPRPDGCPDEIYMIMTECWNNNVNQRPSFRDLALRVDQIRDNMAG

Molecule Cc1cc(Nc2nc3cccc(-c4ccc(S(C)(=O)=O)cc4)c3o2)ccc1N1CCN(CCN(C)C)CC1 [Example 100, {4-[4-(2-Dimethylamino-ethyl)-piperazin-1-yl]-3-methyl-phenyl}-[7-(4-methanesulfonyl-phenyl)-benzooxazol-2-yl]-amine] has an IC50 of 16.5 nM.
CNS(=O)(=O)c1ccc(-c2cccc3nc(Nc4ccc(C)c(OC)c4)oc23)cc1 [Example 144, 4-[2-(3-Methoxy-4-methyl-phenylamino)-benzooxazol-7-yl]-methyl-benzenesulfonamide] was tested, and the IC50 was 725 nM.
Work on Cc1cc(-c2cccc3nc(Nc4ccc(N5CCN(C6CC6)CC5)cc4)oc23)ccc1C(=O)N1CCOCC1 [Example 97, (4-{2-[4-(4-Cyclopropyl-piperazin-1-yl)-phenylamino]-benzooxazol-7-yl}-2-methyl-phenyl)-morpholin-4-yl-methanone] yielded an IC50 of 21.5 nM.
In the case of CCN1CCN(c2ccc(Nc3nc4ccnc(-c5cc(F)c(CN6CCOCC6)c(F)c5)c4o3)cc2C)CC1 [Example 152, [4-(3,5-Difluoro-4-morpholin-4-ylmethyl-phenyl)-oxazolo[5,4-c]pyridin-2-yl]-[4-(4-ethyl-piperazin-1-yl)-3-methyl-phenyl]-amine], the IC50 is reported as 180 nM.
O=C(c1ccc(-c2cccc3nc(Nc4ccc(N5CCNCC5)cc4)oc23)cc1F)N1CCOCC1 [Example 91, {2-Fluoro-4-[2-(4-piperazin-1-yl-phenylamino)-benzooxazol-7-yl]-phenyl}-morpholin-4-yl-methanone] gave an IC50 of 64 nM.
Work on Cc1cc(-c2cccc3nc(Nc4ccc(N5CCN(C6CC6)CC5)c(C)c4)oc23)ccc1C(=O)N1CCOCC1 [Example 155, (4-{2-[4-(4-Cyclopropyl-piperazin-1-yl)-3-methyl-phenylamino]-benzooxazol-7-yl}-2-methyl-phenyl)-morpholin-4-yl-methanone] yielded an IC50 of 13.5 nM.
With Cc1cc(Nc2nc3cccc(-c4ccc(C(=O)N5CCOCC5)cc4F)c3o2)ccc1C(=O)N(C)C [Example 76, 4-{7-[2-Fluoro-4-(morpholine-4-carbonyl)-phenyl]-benzooxazol-2-ylamino}-2,N,N-trimethyl-benzamide] the IC50 was 13 nM.
With Cc1cc(Nc2nc3cccc(-c4ccc(CN5CCS(=O)(=O)CC5)cc4)c3o2)ccc1C(=O)N(C)C [Example 79, 4-{7-[4-(1,1-Dioxo-1lambda*6*-thiomorpholin-4-ylmethyl)-phenyl]-benzooxazol-2-ylamino}-2,N,N-trimethyl-benzamide] the IC50 was under 3 nM.
Molecule CS(=O)(=O)Nc1cccc(Nc2nc3cccc(-c4ccc(C(=O)N5CCOCC5)cc4)c3o2)c1 [Example 148, N-(3-{7-[4-(Morpholine-4-carbonyl)-phenyl]-benzooxazol-2-ylamino}-phenyl)-methanesulfonamide] has an IC50 of 50 nM.
CCN(CC)C(=O)c1ccc(Nc2nc3cccc(-c4cc(F)c(CN5CCN(C(C)=O)CC5)c(F)c4)c3o2)cc1C [Example 117, 4-{7-[4-(4-Acetyl-piperazin-1-ylmethyl)-3,5-difluoro-phenyl]-benzooxazol-2-ylamino}-N,N-diethyl-2-methyl-benzamide] was tested, and the IC50 was 29.5 nM.
Molecule COc1cc(Nc2nc3cccc(-c4ccc(CN5CCOCC5)cc4)c3o2)cc(OC)c1OC [Example 138, [7-(4-Morpholin-4-ylmethyl-phenyl)-benzooxazol-2-yl]-(3,4,5-trimethoxy-phenyl)-amine] has an IC50 of 14 nM.
Work on Cc1cc(Nc2nc3cccc(-c4ccc(CC(=O)N5CCS(=O)(=O)CC5)cc4)c3o2)ccc1C(=O)N(C)C [Example 77, 4-(7-{4-[2-(1,1-Dioxo-1lambda*6*-thiomorpholin-4-yl)-2-oxo-ethyl]-phenyl}-benzooxazol-2-ylamino)-2, N,N-trimethyl-benzamide] yielded an IC50 of 3.3 nM.
For CN1CCN(c2ccc(Nc3nc4cccc(-c5ccc(C(=O)N6CCS(=O)(=O)CC6)c(F)c5)c4o3)cc2)CC1 [Example 80, (1,1-Dioxo-1lambda*6*-thiomorpholin-4-yl)-(2-fluoro-4-{2-[4-(4-methyl-piperazin-1-yl)-phenylamino]-benzooxazol-7-yl}-phenyl)-methanone], the IC50 was 6.2 nM.
For CC(=O)NC1Cc2ccc(Nc3nc4cccc(-c5ccc(CN6CCS(=O)(=O)CC6)cc5)c4o3)cc2C1 (stereo not shown) [Example 133, N-(5-{7-[4-(1,1-Dioxo-1lambda*6*-thiomorpholin-4-ylmethyl)-phenyl]-benzooxazol-2-ylamino}-indan-2-yl)-acetamide], the IC50 was 14 nM.
Work on CNC(=O)c1ccc(Nc2nc3cccc(-c4cc(F)c(CN5CCOCC5)c(F)c4)c3o2)cc1C [Example 120, 4-[7-(3,5-Difluoro-4-morpholin-4-ylmethyl-phenyl)-benzooxazol-2-ylamino]-2,N-dimethyl-benzamide] yielded an IC50 of 39 nM.
Work on COc1cc(Nc2nc3cccc(-c4ccc(CN5CCN(C)CC5)cc4)c3o2)cc(OC)c1OC [Example 137] yielded an IC50 of 160 nM.
Molecule Cc1cc(Nc2nc3cccc(-c4ccc(C(C)(C)C(=O)N5CCOCC5)cc4)c3o2)ccc1N1CCN(C2CC2)CC1 [Example 157, 2-(4-{2-[4-(4-Cyclopropyl-piperazin-1-yl)-3-methyl-phenylamino]-benzooxazol-7-yl}-phenyl)-2-methyl-1-morpholin-4-yl-propan-1-one] has an IC50 of 11.7 nM.
CCN1CCN(c2ccc(Nc3nc4cccc(-c5ccc(C(C)(C)C(=O)N6CCOCC6)cc5)c4o3)cc2C)CC1 [Example 111, 2-(4-{2-[4-(4-Ethyl-piperazin-1-yl)-3-methyl-phenylamino]-benzooxazol-7-yl}-phenyl)-2-methyl-1-morpholin-4-yl-propan-1-one] was tested, and the IC50 was 16.5 nM.
In the case of Cc1cc(Nc2nc3cccc(-c4ccc(CC(=O)N5CCOCC5)c(F)c4)c3o2)ccc1C(=O)N1CCN(C)CC1 [Example 73, 2-(2-Fluoro-4-{2-[3-methyl-4-(4-methyl-piperazine-1-carbonyl)-phenylamino]-benzooxazol-7-yl}-phenyl)-1-morpholin-4-yl-ethanone], the IC50 is reported as 5.15 nM.
Work on Cc1cc(-c2cccc3nc(Nc4cccc(N5CCN(C)CC5)c4)oc23)ccc1C(=O)N1CCOCC1 [Example 129, (2-Methyl-4-{2-[3-(4-methyl-piperazin-1-yl)-phenylamino]-benzooxazol-7-yl}-phenyl)-morpholin-4-yl-methanone] yielded an IC50 of 45 nM.
Molecule COC(=O)c1ccc(Nc2nc3cccc(-c4ccc(C(=O)N5CCOCC5)cc4)c3o2)cc1OC [Example 149, 2-Methoxy-4-{7-[4-(morpholine-4-carbonyl)-phenyl]-benzooxazol-2-ylamino}-benzoic acid methyl ester] has an IC50 of 62 nM.
Cc1cc(Nc2nc3cccc(-c4ccc(CN5CCS(=O)(=O)CC5)c(F)c4)c3o2)ccc1C(=O)N(C)C [Example 84, 4-{7-[4-(1,1-Dioxo-1lambda*6*-thiomorpholin-4-ylmethyl)-3-fluoro-phenyl]-benzooxazol-2-ylamino}-2,N,N-trimethyl-benzamide] was tested, and the IC50 was under 3 nM.
CCN1CCN(c2ccc(Nc3nc4cccc(-c5cc(F)c(CN6CCOCC6)c(F)c5)c4o3)cc2C)CC1 [Example 98, [7-(3,5-Difluoro-4-morpholin-4-ylmethyl-phenyl)-benzooxazol-2-yl]-[4-(4-ethyl-piperazin-1-yl)-3-methyl-phenyl]-amine] was tested, and the IC50 was 5.2 nM.
Molecule C[S+]([O-])c1ccc(Nc2nc3cccc(-c4ccc(CC(=O)N5CCOCC5)cc4)c3o2)cc1 (stereo not shown) [Example 135, 2-{4-[2-(4-Methanesulfinyl-phenylamino)-benzooxazol-7-yl]-phenyl}-1-morpholin-4-yl-ethanone] has an IC50 of 18 nM.
CCN(CC)C(=O)c1ccc(Nc2nc3cccc(-c4ccc(CC(=O)N5CCS(=O)(=O)CC5)cc4)c3o2)cc1OC [Example 123, 4-(7-{4-[2-(1,1-Dioxo-1lambda*6*-thiomorpholin-4-yl)-2-oxo-ethyl]-phenyl}-benzooxazol-2-ylamino)-N,N-diethyl-2-methoxy-benzamide] gave an IC50 of 5.4 nM.
